What was measured:
[1] = ABTS radical scavenging assay; format: biochemical; settings: supplement tables; for ABTS, mean±SD: n = 3
Description: The ABTS radical scavenging activity of the sample was measured using a method adapted from Mirzaei et al.. The ABTS radical was generated by mixing 7 mM ABTS with 2.45 mM potassium persulfate in a 1:1 ratio and incubating the mixture in the dark at room temperature for 12 to 16 h. The resulting solution was then diluted to achieve an absorbance of 0.74 ± 0.03 at 734 nm, using deionized water for adjustments. Next, 10 μL of the sample was added to 190 μL of the ABTS solution. The mixture was incubated in the dark for 7 min, after which the absorbance was measured at 734 nm. The ABTS radical scavenging activity (%) was calculated using the following equation (2):
ABTSradicalscavengingactivity%=Acontrol–Asample/Acontrol×100 (2)
In this equation, Acontrol refers to the absorbance of the control solution (which contains all reagents except the test samples), while Asample refers to the absorbance of the mixture containing the sample and the ABTS solution. To determine the Trolox equivalent antioxidant capacity (TEAC), a Trolox standard curve was used, and the results were expressed as millimoles of Trolox equivalents per milligram of protein (mM TE/mg protein).

RAW 264.7 [2] = assay: Anti-inflammation assay: released NO in LPS-stimulated RAW 264.7 (Griess); format: cell-based, Murine; settings: then 1 µg/mL LPS 24 h; for Released NO: peptide 10 µg/mL 1 h; for Released NO, mean±SD: peptide 10 µg/mL pre-treatment 1 h, Griess reagent, n = 3
Description: (§1) Murine macrophage cells (RAW 264.7; ATCC TIB-71™) were cultured in Dulbecco’s Modified Eagle’s Medium (DMEM) that was supplemented with 10% heat-inactivated fetal bovine serum (FBS) and 1% antibiotic solution. Colorectal adenocarcinoma cells (CaCo-2; ATCC HTB 37™) were cultured in Eagle’s Minimum Essential Medium (EMEM), also supplemented with 10% heat-inactivated FBS and 1% antibiotic solution. Both cell types were maintained in a humidified incubator with 5% CO2. The cell culture medium was refreshed every three days.
The anti-inflammation assay was conducted following the method described by Barzkar et al. with slight modifications. RAW 264.7 (1 x 10^5 cells) was seeded into a 96-well plate to allow for cell attachment. After 24 h, the cells were pre-treated with fresh medium containing peptide samples at a concentration of 10 µg/mL for 1 h. Subsequently, the treated cells were stimulated with 1 µg/mL lipopolysaccharide (LPS) for an additional 24 h. Unstimulated cells were included as a negative control. At the end of the treatment period, the conditioned medium was collected for the determination of released nitric oxide (NO). Griess’s reagent (Promega) was utilized to measure the NO concentration, following the manufacturer’s instructions. A NO calibration curve was generated to quantify the released NO in the conditioned medium.

[3] = Ferric reducing antioxidant power (FRAP) assay; format: biochemical
Description: The FRAP assay was conducted following the method outlined by Rumpf et al.. The FRAP solution was prepared by mixing 300 mM acetate buffer (pH 3.6), 10 mM TPTZ (2,4,6-Tris(2-pyridyl)-s-triazine) in 40 mM hydrochloric acid, and 20 mM FeCl3 in a ratio of 10:1:1. In a 96-well plate, 10 μL of the sample was combined with 190 μL of the FRAP solution and incubated in the dark for 15 min. The absorbance of the mixture was then measured at 593 nm. FeSO4 was used to create the standard curve, and the results were expressed as millimoles of FeSO4 equivalent per milligram of protein (mM FeSO4/mg protein).

RAW 264.7 [4] = assay: Cytotoxicity assessment (MTT); format: cell-based, Murine; settings: peptide 10 µg/mL, 72 h; for Cell viability, mean±SD: relative to untreated cells
Description: as §1
Cytotoxicity assessment was performed following the method described by Yang et al., with slight modifications. RAW 264.7 was seeded with 1 x 10^5 cells in a 96-well plate with an appropriate cell culture medium. After allowing the cells to attach, the medium was replaced with a fresh cell culture medium containing the peptide samples at a concentration of 10 µg/mL. The treated cells were incubated for an additional 72 h. At the designated time, fresh medium was added, which included 3-(4,5-dimethylthiazol-2-yl)-2,5-diphenyltetrazolium bromide (MTT) at a concentration of 0.5 mg/mL. After 3 h, formazan crystals were observed. The medium was then removed, and the crystals were dissolved in 100% dimethyl sulfoxide (DMSO). A microplate reader (Synergy HTX; Biotek, Multi-Mode Reader, Winooski, VT, USA) was utilized to measure the absorbance at 570 nm (measurement wavelength) and 630 nm (reference wavelength). The percentage of cell viability was calculated relative to untreated cells using the following equation (5):
Cellviability%=ODtreatment–ODblank/ODuntreated–ODblank×100 (5)
Where ODtreatment is the absorbance of the treated sample, ODuntreated is the absorbance of the untreated sample, and ODblank is the absorbance from wells without treated and untreated samples.

[5] = 10 µL sample + 190 µL FRAP solution, 15 min dark, 593 nm, FeSO4 standard curve, mean ± SD, n = 3, SD

Row | Sequence | ABTS, mean±SD [1] | ABTS ([1]; replicate 1) [TE/mg protein] | ABTS ([1]; replicate 2) [TE/mg protein] | ABTS ([1]; replicate 3) [TE/mg protein] | Released NO (RAW 264.7 [2]; replicate 1) [µM] | Released NO (RAW 264.7 [2]; replicate 2) [µM] | Released NO (RAW 264.7 [2]; replicate 3) [µM] | Released NO, mean±SD (RAW 264.7 [2]; SD) | FRAP [3, 5] | FRAP ([3]; supplement tables, replicate 1) [mM FeSO4/mg protein] | FRAP ([3]; supplement tables, replicate 2) [mM FeSO4/mg protein] | FRAP ([3]; supplement tables, replicate 3) [mM FeSO4/mg protein] | Cell viability, mean±SD (RAW 264.7 [4]; n = 3, SD) [%] | Cell viability (RAW 264.7 [4]; replicate 1) [%] | Cell viability (RAW 264.7 [4]; replicate 2) [%] | Cell viability (RAW 264.7 [4]; replicate 3) [%] | Released NO, mean±SD (RAW 264.7 [2]) [µM] | Cell viability, mean±SD (RAW 264.7 [4]; n = 3)
1 | DAENKENVEE [P18, synthesized peptide identified from jellyfish fraction PUR20C] | 6.05 TE/mg protein | 5.71 | 5.51 | 6.91 | 34.13 | 31.37 | 31.03 | 32.18±1.70^F µM | 4.40±0.43^H mM FeSO4/mg protein | 4.89 | 4.05 | 4.26 | 89.16 | 86.29 | 87.17 | 94.02 | – | –
2 | MVVACVLPEA [P16, synthesized peptide identified from jellyfish fraction PUR20C] | 121.31±0.87^D TE/mg protein | 121.71 | 120.30 | 121.91 | 35.17 | 33.44 | 35.17 | 34.59 ± 0.99 µM | 6.92 mM FeSO4/mg protein | 8.05 | 7.63 | 5.10 | – | 81.01 | 81.37 | 81.19 | 34.59 | without cytotoxic effects
3 | LGAEGRSP [P13, synthesized peptide identified from jellyfish fraction PUR20C] | 6.51±0.87^H TE/mg protein | 5.91 | 6.11 | 7.51 | 35.17 | 35.51 | 37.58 | 36.09 µM | 4.82±0.73^H mM FeSO4/mg protein | 4.89 | 5.52 | 4.05 | 82.77±1.53 | 81.72 | 82.07 | 84.53 | – | –
4 | PMETDDQPNN [P17, synthesized peptide identified from jellyfish fraction PUR20C] | 4.64 TE/mg protein | 4.11 | 4.11 | 5.71 | 34.48 | 34.82 | 34.82 | 34.71 µM | 6.50±1.59^G mM FeSO4/mg protein | 7.63 | 7.21 | 4.68 | 83.65 | 83.47 | 83.83 | 83.65 | – | –
5 | LNIPKPKLNLL [P11, synthesized peptide identified from jellyfish fraction PUR20C] | 3.91 TE/mg protein | 4.11 | 3.71 | 3.91 | 36.55 | 35.86 | 37.58 | 36.66 ± 0.86 µM | 6.36±0.63^G mM FeSO4/mg protein | 6.36 | 7.00 | 5.73 | 84.71 | 84.53 | 85.41 | 84.18 | – | –
6 | NQKAMQELNE [P1, synthesized peptide identified from jellyfish fraction PUR20C] | 4.44 TE/mg protein | 4.91 | 4.11 | 4.31 | 37.58 | 38.27 | 37.93 | 37.93 µM | 8.61±0.12^E mM FeSO4/mg protein | 8.47 | 8.68 | 8.68 | 85.94 | 88.04 | 85.76 | 84.00 | – | –
7 | EQIYPMGEGDEL [P4, synthesized peptide identified from jellyfish fraction PUR20C] | 103.41±1.20^F TE/mg protein | 103.28 | 102.27 | 104.68 | 38.96 | 35.86 | 36.55 | 37.12 µM | 8.40 mM FeSO4/mg protein | 8.89 | 8.47 | 7.84 | 82.77±0.92 | 83.12 | 83.47 | 81.72 | – | –

From publication PMC11813147, “Bioactivity assessment of peptides derived from salted jellyfish (Rhopilema hispidum) byproducts” (PLOS ONE, 2025)
